Test results from article PMC11676896, “Protective Action of Cannabidiol on Tiamulin Toxicity in Humans—In Vitro Study” (International Journal of Molecular Sciences, 2024).
Several values for one entry are separate records, joined by “and”; a condition that tells them apart may be missing. Equal entries are not always repeated. Structures can show the parent of a compound that is named as a salt. Where two headings read alike, the source gives them in different places.

Key:
HepG2 and HEK-293 cells = system: HepG2 and HEK-293 cells; set-up: method as in PMID 39241564, PMID 37709940; conditions: 10 h of exposure, cited from earlier work
HepG2 cells [1] = experiment: BrdU assay (DNA synthesis); format: cell-based, human; conditions: HepG2, 72 h
Experimental: (§1) The cytotoxic potential of the veterinary drug and its mixtures with cannabidiol at two non-toxic concentrations: 1.56 and 3.15 µg/mL, on the human SH-SY5Y, HepG2 and HEK 293 cell lines was assessed by decreased viability of the cells within five biochemical endpoints: mitochondrial activity and lysosomal activity (MTT assays, reducing the tetrazolium dye MTT 3-(4,5-dimethylthiazol-2-yl)-2,5-diphenyltetrazolium bromide and neutral red uptake (NRU) assays), total protein content (TPC assay), cellular membrane integrity (leakage lactate dehydrogenase (LDH) assay) and DNA synthesis (the bromodeoxyuridine/5-bromo-2′-deoxyuridine incorporation into the DNA cells (BrdU) assay) after 72 h exposition. Data obtained from the measurement of the optical density in these assays were transformed to percentages in relation to the negative control group (0.1% DMSO in medium), considered to be 100% for the MTT, NRU, TPC and BrdU assays and 0% for the LDH assay. 1% Trition-X 100 solution in medium was used as the positive controls, (Figure 3).
(§2) The human neuroblastoma (SH-SY5H), hepatoma (HepG2) and kidney cells (HEK 293) cells were purchased from the American Type Culture Collection: ATCCCRL-2266,ATCC HB-8065 and ATCC CRL-1573, respectively. These cells were cultured in Minimum Essential Medium Eagle (MEME) (ATCC). The media were supplemented with 10% FBS, 1% L-glutamine (and 1% antibiotic solution (P4333 Sigma). The cells were maintained in 75 cm^2 cell culture flasks (NUNC) in a humidified incubator at 37 °C in an atmosphere of 5% CO2. The medium was refreshed every two or three days, and the cells were subcultured by 0.25% trypsin–0.02% EDTA after reaching 70–80% confluence. Single cell suspensions were prepared and adjusted to a density of 2 × 10^5 cell/mL^−1 (SH-SY5H), 1 × 10^5 cell/mL^−1 (HepG2) and 1 × 10^5 cell/mL^−1 (HEK-293). The cell suspension was transferred to 96-well plates (100 µL/well) or Lab-Tek chamber slides (8 wells) (Nunc) for staining and incubated for 24 h before the exposure to the studied compounds. Stock solutions of tiamulin fumarate and cannabidiol were prepared in DMSO and diluted with culture medium to obtain a concentration range from 1.56 to 200 µg/mL and 1.56 or 3.156 µg/mL, respectively. The selection of tiamulin concentrations was based on data from the literature and pilot studies. The final concentration of DMSO was 0.1% in the medium. The same final concentrations of the solvent and the 1% Trition-X 100 solution were used as the negative and positive controls, respectively. A total of 500 µM hydrogen peroxide (H2O2) in was used as the positive control in the DCFH assay. […] As a negative control, cultured cells were grown in the absence of studied compounds. Each concentration was tested in six replicates in three independent experiments. Cytotoxicity was assessed after 72 h of exposure of the cells to the compounds. The medium was not changed during the incubation time.
(§3) Cell proliferation was evaluated by BrdU assay using a Cell Proliferation ELISA, BrdU (colorimetric) kit (Roche, Switzerland), according to manufacturer’s instructions. Briefly, BrdU was incorporated in the place of thymidine into the DNA of cells under division. This BrdU was detected by an anti-BrdU antibody conjugated with peroxidase and the reaction product of the enzyme with the given substrate was quantified by measuring its absorbance. The absorbance (A) was measured at 370 nm and 492 nm in a Synergy 2 Multi-Mode Microplate Reader (BioTek® Instruments Inc., Winooski, VT, USA), using a blank as a reference.
(§4) This study was performed in three independent experiments. The obtained results are presented as mean values ± SD (standard deviation). The assessment of the cytotoxicity data used a one-way analysis of variance (ANOVA) followed by Dunnett’s post hoc test, which was applied to determine significance relative to the negative control. […]

HEK 293 cells [2] = experiment: BrdU assay (DNA synthesis); format: cell-based, human
Experimental: as §1, §2, §3, §4

SH-SY5Y cells [3] = experiment: BrdU assay (DNA synthesis); format: cell-based, human; conditions: 72 h
Experimental: as §1, §2, §3, §4

RAW264.7 macrophages = system: RAW264.7 macrophages; set-up: method as in PMID 35956888; conditions: cited from earlier work
[4] = system: SH-SY5Y, HepG2 and HEK-293 cells; experiment: Cellular morphology, May-Grünwald-Giemsa staining; format: cell-based, human; conditions: May-Grunwald staining
Experimental: This method was used to illustrate the changes that occurred in cell morphology under the influence of the tested compounds. The staining was performed on 24-well plates. The cells at a density of 1 × 10^5 cells/mL were used. After 24 h of incubation with the examined drugs or without them (control), the culture media was removed and the cells were stained with 1 mL of May–Grünwald dye for 3 min at room temperature. Then, 1 mL of deionized water was added to each plate. After 3 min of incubation at room temperature, the liquid was removed. All the plates were rinsed with deionized water, and then the cells were stained with Giemsa dye (dilution 1:20) for 30 min at room temperature. After this time, the dye was removed and the wells were rinsed with 1 mL of deionized water and then allowed to dry. The images were taken using a light microscope (Zeiss, Obercochem, Germany).

HepG2 cells [5] = experiment: LDH leakage assay (cell membrane integrity); format: cell-based, human; conditions: HepG2, 72 h
Experimental: as §1, §2
(§5) The integrity of the plasma membrane was assessed through the test of lactate dehydrogenase (LDH) release, which was monitored using the commercially available Cytotoxicity Detection Kit (LDH) (Roche Diagnostics, Warsaw, Poland). The medium (100 µL/well) without cells was transferred into the corresponding wells of an optically clear 96-well flat bottom microplate, and 100 µL reaction mixture was added to each well. Then, the plates were incubated for 30 min at room temperature in darkness. After that time, 50 µL/well of 1 M HCl was added to stop the reaction. The absorbance was measured at 492 nm in a Synergy 2 Multi-Mode Microplate Reader (BiTek® Instruments Inc., Winooski, VT, USA) using a blank as a reference.
(§6) This study was performed in three independent experiments. The obtained results are presented as mean values ± SD (standard deviation). […]

HEK 293 cells [6] = experiment: LDH leakage assay (cell membrane integrity); format: cell-based, human
Experimental: as §1, §2, §5, §6

SH-SY5Y cells [7] = experiment: LDH leakage assay (cell membrane integrity); format: cell-based, human; conditions: 72 h
Experimental: as §1, §2, §5, §6

[8] = Homo sapiens, read-out: inhibited concentration (IC50), BrdU
[9] = Homo sapiens, read-out: inhibited concentration (IC50), LDH

C=C[C@]1(C)C[C@@H](OC(=O)CSCCN(CC)CC)[C@]2(C)[C@H](C)CC[C@]3(CCC(=O)[C@H]32)[C@@H](C)[C@@H]1O [T, tiamulin fumarate]
concentrations with cytotoxic effects (HepG2 and HEK-293 cells; converted from µM): 49.4 µg/mL and 98.8 µg/mL
concentrations with cytotoxic effects (HepG2 and HEK-293 cells): 100 µM and 200 µM
tiamulin concentration that inhibited DNA synthesis (HepG2 cells [1]): 25 µg/mL
IC50 (HepG2 cells [1]; [8]): 13.9 ± 0.8 µg/mL
tiamulin concentration that inhibited DNA synthesis (HEK 293 cells [2]; HEK-293, 72 h): 12.5 µg/mL
IC50 (HEK 293 cells [2]; Homo sapiens, HEK293, 72 h, read-out: inhibited concentration (IC50), BrdU): 14.6 ± 1.3 µg/mL
tiamulin concentration that inhibited DNA synthesis (SH-SY5Y cells [3]): 6.25 µg/mL
IC50 (SH-SY5Y cells [3]; [8]): 9.9 ± 1.1 µg/mL
concentrations that did not result in 50% reduction in the macrophages' viability (RAW264.7 macrophages): up to 20 μg/mL
concentrations with no significant cytotoxicity (RAW264.7 macrophages): less than 5 μg/mL
changes in cell morphology [4]: detachment from the adhesion surface
tiamulin concentration that caused disintegration of the cell membrane (HepG2 cells [5]): 25 µg/mL
IC50 (HepG2 cells [5]; [9]): 39.5 ± 1.7 µg/mL
tiamulin concentration that caused disintegration of the cell membrane (HEK 293 cells [6]; HEK-293, 72 h): 25 µg/mL
IC50 (HEK 293 cells [6]; Homo sapiens, HEK293, 72 h, read-out: inhibited concentration (IC50), LDH): 76.9 ± 2.3 µg/mL
tiamulin concentration that caused disintegration of the cell membrane (SH-SY5Y cells [7]): 25 µg/mL
IC50 (SH-SY5Y cells [7]; [9]): > 200 µg/mL
